Source: ChEMBL document CHEMBL1201862, “PubChem BioAssay data set” (2004)
The source made the active and inactive calls.

Columns and labels:
[1] = Luminescence Cell-Based Dose Retest to Confirm Inhibitors of Cancer Stem Cells. [Related pubchem assays (depositor defined):AID2717, AID2721]; type: functional; details: Homo sapiens
[2] = tested on: Escherichia coli; assay: microbe, parasite or virus in culture
[3] = A Cell Based Secondary Assay To Explore Cytotoxicity of Compounds that Sensitize Mycobacterium Tuberculosis to Beta-Lactam Antibiotics.; type: functional
[4] = molecular target: Dual specificity protein kinase CLK1 (Homo sapiens, UniProt P49759); assay: CLK1 kinase inhibitors, off-target check, dose response, selectivity assay for Dyrk1A inhibitor project, biochemical, cherry-picked samples (AID 588811)
[5] = molecular target: T1, Rac GTPase-activating protein 1 (Homo sapiens, UniProt Q9H0H5); assay: MgcRacGAP GTPase-activating activity inhibitors, confirmation, biochemical, ADP Hunter fluorescence, primary and confirmatory (AID 624330); type: functional
T1 sequence (Q9H0H5 whole entry): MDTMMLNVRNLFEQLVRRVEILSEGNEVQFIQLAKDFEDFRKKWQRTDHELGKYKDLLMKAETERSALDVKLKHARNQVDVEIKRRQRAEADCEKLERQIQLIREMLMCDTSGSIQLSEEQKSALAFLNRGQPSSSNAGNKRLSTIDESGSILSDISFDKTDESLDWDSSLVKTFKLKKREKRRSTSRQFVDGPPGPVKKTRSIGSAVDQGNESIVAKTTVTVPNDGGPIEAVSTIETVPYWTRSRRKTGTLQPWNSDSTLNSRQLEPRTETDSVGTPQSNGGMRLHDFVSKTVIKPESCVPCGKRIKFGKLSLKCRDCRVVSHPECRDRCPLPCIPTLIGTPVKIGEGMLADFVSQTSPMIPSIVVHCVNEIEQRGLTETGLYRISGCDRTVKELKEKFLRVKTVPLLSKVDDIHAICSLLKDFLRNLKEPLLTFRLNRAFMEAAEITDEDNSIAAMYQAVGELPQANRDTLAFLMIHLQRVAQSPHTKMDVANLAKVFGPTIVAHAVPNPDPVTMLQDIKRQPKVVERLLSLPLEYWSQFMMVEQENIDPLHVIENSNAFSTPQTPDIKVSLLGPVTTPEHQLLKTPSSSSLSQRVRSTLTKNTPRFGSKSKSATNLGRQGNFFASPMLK

[6] = HeLa cell cytotoxicity, dose response, cytotoxicity control for MgcRacGAP inhibitor project (AID 624300); type: functional
[7] = molecular target: Glucose-6-phosphate 1-dehydrogenase (Homo sapiens, UniProt P11413); assay: human G6PD enzyme inhibitors, dose response, selectivity assay for P. falciparum G6PD inhibitor project, biochemical, fluorescence (AID 504792); type: functional
[8] = cytotoxicity in HEK-293T NF-kB-Luc cells, dose response, cytotoxicity control for B/T-cell NF-kB inhibitor project, cell-based, uHTS hits (AID 489019); type: functional;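 note: IC50 reflects cytotoxicity as loss of cell viability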
[9] = molecular target: T2, Microphthalmia-associated transcription factor (Homo sapiens, UniProt O75030); assay: TRPM1 promoter luciferase signal decrease, dose response, MITF inhibitor project, cell-based, SK-MEL-5, cherry-picked, set 3 (AID 493073); type: functional
T2 sequence (O75030 whole entry): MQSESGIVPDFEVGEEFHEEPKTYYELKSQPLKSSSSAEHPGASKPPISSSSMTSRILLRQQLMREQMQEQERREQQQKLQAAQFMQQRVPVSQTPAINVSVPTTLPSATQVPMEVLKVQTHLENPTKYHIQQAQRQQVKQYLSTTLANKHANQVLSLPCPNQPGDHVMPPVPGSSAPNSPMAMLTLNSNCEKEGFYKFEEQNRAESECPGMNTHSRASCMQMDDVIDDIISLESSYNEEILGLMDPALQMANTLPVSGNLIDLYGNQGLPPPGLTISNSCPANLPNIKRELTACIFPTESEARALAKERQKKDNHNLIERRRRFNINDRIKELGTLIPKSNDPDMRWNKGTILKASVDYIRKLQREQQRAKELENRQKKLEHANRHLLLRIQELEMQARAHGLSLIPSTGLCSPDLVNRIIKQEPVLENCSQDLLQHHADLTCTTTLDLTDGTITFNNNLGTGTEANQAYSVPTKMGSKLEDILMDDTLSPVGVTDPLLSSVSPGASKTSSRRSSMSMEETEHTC

[10] = tested on: Jurkat; assay: antigen receptor-induced NF-kB inhibitors, dose response, Jurkat, luciferase reporter, luminescence, B- and T-cell (AID 489004); type: functional, cell-based; details: Homo sapiens;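 note: NF-kB luciferase reporter Jurkat cells stimulated with PMA plus ionomycin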
[11] = molecular target: Hexokinase HKDC1 (Homo sapiens, UniProt Q2TB90); assay: SAR analysis of small molecule inhibitors of hexokinase domain containing I (HKDC1). [Related pubchem assays (depositor defined):AID493160, AID493190]; type: functional
[12] = molecular target: Hexokinase-1 (Homo sapiens, UniProt P19367); assay: SAR analysis of small molecule inhibitors of hexokinase domain containing I (HKDC1) in the hexokinase 1 selectivity assay. [Related pubchem assays (depositor defined):AID493160, AID493190]; type: functional
[13] = molecular target: T3, Sentrin-specific protease 7 (Homo sapiens, UniProt Q9BQF6); assay: SENP7 protease inhibitors, SAR follow-up, biochemical, luminescence, set 2 (AID 588600); type: functional
T3 sequence (Q9BQF6 whole entry): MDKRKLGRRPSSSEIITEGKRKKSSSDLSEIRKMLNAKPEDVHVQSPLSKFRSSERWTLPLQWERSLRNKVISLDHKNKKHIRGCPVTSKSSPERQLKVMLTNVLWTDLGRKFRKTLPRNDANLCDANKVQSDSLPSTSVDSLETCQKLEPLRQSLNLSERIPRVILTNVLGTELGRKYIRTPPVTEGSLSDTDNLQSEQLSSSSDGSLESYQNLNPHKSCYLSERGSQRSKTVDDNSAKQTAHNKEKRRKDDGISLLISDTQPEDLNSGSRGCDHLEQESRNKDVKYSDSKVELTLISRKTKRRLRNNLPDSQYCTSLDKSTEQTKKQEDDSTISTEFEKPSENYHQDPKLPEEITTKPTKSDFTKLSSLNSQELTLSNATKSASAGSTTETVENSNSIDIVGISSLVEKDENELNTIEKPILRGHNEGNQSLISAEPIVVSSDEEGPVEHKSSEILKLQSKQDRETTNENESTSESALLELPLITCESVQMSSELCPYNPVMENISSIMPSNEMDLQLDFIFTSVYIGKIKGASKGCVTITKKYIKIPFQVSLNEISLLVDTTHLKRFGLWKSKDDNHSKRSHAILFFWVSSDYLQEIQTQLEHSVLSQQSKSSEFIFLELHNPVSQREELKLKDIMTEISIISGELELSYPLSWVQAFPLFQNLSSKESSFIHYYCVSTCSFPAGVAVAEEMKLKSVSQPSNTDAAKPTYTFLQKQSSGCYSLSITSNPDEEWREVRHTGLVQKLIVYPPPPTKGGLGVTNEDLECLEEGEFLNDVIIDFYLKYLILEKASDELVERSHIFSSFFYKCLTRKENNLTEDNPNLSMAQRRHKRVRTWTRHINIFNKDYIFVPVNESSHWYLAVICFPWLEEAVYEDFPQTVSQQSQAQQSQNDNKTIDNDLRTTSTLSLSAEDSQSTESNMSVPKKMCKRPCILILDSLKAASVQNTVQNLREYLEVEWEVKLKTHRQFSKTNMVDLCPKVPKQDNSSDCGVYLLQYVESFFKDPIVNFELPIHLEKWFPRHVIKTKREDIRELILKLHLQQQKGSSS

[14] = molecular target: T4, Caspase-3 (Homo sapiens, UniProt P42574); assay: caspase-3 inhibitors as off-family protease, SAR follow-up, selectivity assay for SENP protease inhibitor project, biochemical, luminescence, set 2 (AID 588599); type: functional
T4 sequence (P42574 whole entry): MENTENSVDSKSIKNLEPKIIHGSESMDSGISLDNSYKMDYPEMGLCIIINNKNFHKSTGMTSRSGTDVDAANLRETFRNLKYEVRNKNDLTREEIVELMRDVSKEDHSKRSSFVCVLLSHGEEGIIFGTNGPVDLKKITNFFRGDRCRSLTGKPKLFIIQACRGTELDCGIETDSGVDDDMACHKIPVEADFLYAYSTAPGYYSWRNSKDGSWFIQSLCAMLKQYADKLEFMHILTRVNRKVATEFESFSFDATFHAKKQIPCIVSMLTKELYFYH

[15] = molecular target: T5, Sentrin-specific protease 8 (Homo sapiens, UniProt Q96LD8); assay: SENP8 protease inhibitors, SAR follow-up, biochemical, luminescence, set 2 (AID 588601); type: functional
T5 sequence (Q96LD8 whole entry): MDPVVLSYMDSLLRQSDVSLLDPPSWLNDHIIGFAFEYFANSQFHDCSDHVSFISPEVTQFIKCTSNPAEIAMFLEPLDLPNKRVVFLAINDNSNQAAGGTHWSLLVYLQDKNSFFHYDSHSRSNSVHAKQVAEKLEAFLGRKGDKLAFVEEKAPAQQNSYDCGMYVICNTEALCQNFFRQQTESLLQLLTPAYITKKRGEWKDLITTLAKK

[16] = molecular target: T6, Sentrin-specific protease 6 (Homo sapiens, UniProt Q9GZR1); assay: SENP6 protease inhibitors, SAR follow-up, biochemical, luminescence, set 2 (AID 588598); type: functional
T6 sequence (Q9GZR1 whole entry): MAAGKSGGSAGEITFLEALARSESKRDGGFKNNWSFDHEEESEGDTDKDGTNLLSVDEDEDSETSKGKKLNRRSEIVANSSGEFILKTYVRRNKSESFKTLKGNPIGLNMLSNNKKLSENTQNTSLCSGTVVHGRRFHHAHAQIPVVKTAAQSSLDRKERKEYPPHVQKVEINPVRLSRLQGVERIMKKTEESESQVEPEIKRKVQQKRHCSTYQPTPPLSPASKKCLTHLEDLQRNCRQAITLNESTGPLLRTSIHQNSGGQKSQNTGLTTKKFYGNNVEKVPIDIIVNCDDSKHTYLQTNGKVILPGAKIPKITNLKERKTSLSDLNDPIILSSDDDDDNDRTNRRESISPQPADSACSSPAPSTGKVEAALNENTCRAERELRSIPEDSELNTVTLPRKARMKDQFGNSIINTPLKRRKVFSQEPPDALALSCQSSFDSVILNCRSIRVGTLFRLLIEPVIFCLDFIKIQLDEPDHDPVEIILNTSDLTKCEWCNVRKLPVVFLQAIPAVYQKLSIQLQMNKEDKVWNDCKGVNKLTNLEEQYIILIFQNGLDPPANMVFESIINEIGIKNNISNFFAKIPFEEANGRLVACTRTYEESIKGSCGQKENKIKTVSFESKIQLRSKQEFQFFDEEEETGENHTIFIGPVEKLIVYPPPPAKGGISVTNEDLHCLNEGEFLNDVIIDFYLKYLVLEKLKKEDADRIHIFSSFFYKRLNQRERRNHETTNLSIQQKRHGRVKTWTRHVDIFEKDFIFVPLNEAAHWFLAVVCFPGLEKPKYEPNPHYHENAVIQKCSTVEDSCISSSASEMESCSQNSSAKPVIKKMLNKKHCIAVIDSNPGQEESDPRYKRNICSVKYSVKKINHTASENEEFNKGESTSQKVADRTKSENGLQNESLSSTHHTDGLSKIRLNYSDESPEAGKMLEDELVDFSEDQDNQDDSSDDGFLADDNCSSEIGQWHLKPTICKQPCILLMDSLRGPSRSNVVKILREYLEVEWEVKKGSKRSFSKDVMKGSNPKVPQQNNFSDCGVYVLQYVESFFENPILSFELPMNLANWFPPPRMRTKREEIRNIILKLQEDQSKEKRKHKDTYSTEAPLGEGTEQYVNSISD

[17] = cytotoxicity in HEK-293T cells, dose response, cytotoxicity control for TCR NF-kB inhibitor project, luminescence, T-cell screen hits (AID 489026); type: functional, cell-based;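 note: cells exposed to compound about 14 hours before the viability readout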
[18] = molecular target: T7, Cysteine protease ATG4B (Homo sapiens, UniProt Q9Y4P1); assay: ATG4B protease inhibitors, dose response, biochemical, fluorescence, set 2 (AID 588584); type: functional
T7 sequence (Q9Y4P1 whole entry): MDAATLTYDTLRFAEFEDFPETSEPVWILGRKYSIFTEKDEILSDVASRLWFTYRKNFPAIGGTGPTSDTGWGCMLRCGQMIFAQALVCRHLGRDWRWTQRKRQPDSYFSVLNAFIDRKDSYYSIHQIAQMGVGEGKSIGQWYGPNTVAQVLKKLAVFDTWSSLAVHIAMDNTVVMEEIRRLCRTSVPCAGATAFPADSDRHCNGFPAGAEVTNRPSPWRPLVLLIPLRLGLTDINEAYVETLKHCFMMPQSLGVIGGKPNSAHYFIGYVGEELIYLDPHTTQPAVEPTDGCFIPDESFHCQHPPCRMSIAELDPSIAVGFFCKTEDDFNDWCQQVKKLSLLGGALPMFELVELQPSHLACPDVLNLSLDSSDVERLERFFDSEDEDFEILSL

[19] = molecular target: Phospholipase A2 (Homo sapiens, UniProt P04054); assay: PLA2 enzyme inhibitors, dose response, counter-screen for ATG4B inhibitor project, biochemical, set 2 (AID 588586); type: functional
Phospholipase A2, sequence (P04054 whole entry): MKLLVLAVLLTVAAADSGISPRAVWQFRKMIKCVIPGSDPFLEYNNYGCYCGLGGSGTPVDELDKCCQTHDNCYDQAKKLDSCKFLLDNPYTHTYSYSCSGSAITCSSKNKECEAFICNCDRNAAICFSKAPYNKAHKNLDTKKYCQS

Glucose-6-phosphate 1-dehydrogenase, sequence (P11413 whole entry): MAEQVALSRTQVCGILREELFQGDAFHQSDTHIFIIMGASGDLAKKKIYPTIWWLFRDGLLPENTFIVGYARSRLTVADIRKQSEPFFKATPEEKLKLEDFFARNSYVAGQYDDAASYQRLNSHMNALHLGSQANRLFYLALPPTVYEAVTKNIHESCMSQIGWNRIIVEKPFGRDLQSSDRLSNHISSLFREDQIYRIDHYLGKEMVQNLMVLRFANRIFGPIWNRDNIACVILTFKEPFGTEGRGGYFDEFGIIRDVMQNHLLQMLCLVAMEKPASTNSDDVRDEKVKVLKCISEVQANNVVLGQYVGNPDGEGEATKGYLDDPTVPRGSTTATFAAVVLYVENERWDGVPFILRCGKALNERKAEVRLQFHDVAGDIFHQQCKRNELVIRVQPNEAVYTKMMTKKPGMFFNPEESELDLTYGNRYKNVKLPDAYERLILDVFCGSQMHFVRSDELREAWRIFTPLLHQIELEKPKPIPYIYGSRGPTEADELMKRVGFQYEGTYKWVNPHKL
Hexokinase-1, sequence (P19367 whole entry, the tested form may be a part): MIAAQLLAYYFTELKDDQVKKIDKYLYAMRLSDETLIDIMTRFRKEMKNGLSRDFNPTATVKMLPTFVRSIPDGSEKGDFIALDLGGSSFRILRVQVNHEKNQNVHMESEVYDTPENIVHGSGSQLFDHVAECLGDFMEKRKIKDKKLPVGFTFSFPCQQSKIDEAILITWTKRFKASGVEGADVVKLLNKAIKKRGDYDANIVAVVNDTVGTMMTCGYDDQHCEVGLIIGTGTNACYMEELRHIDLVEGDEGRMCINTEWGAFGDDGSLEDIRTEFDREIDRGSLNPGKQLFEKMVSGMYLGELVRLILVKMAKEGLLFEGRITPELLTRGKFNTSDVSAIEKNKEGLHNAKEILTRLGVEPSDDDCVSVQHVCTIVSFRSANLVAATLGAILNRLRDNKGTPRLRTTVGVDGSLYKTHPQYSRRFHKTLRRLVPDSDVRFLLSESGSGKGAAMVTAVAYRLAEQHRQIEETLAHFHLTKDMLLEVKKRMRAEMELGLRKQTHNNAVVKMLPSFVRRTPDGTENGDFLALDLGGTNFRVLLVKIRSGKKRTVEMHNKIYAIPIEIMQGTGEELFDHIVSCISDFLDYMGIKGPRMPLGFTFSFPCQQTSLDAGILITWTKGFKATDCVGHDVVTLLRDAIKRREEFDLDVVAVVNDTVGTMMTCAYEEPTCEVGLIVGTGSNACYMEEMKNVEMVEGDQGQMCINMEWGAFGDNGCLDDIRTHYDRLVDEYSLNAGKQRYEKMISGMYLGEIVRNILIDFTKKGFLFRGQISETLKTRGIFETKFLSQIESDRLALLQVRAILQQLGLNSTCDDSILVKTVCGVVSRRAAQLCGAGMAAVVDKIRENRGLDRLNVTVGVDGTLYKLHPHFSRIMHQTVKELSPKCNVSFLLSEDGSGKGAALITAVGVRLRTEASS
Dual specificity protein kinase CLK1, sequence (P49759 whole entry): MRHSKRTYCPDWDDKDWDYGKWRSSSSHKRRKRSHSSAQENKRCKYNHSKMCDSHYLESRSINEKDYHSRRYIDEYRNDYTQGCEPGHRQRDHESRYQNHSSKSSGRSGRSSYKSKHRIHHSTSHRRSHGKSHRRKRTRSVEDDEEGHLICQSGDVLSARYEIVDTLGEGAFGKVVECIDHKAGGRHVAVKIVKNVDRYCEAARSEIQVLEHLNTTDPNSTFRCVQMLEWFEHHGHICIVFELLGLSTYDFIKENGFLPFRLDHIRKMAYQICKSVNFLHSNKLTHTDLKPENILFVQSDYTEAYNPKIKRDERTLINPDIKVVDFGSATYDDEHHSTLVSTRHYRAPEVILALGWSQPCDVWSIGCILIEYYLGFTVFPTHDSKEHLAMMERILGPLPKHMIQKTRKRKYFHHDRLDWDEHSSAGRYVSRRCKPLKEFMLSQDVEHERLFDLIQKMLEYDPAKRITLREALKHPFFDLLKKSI
Hexokinase HKDC1, sequence (Q2TB90 whole entry, the tested form may be a part): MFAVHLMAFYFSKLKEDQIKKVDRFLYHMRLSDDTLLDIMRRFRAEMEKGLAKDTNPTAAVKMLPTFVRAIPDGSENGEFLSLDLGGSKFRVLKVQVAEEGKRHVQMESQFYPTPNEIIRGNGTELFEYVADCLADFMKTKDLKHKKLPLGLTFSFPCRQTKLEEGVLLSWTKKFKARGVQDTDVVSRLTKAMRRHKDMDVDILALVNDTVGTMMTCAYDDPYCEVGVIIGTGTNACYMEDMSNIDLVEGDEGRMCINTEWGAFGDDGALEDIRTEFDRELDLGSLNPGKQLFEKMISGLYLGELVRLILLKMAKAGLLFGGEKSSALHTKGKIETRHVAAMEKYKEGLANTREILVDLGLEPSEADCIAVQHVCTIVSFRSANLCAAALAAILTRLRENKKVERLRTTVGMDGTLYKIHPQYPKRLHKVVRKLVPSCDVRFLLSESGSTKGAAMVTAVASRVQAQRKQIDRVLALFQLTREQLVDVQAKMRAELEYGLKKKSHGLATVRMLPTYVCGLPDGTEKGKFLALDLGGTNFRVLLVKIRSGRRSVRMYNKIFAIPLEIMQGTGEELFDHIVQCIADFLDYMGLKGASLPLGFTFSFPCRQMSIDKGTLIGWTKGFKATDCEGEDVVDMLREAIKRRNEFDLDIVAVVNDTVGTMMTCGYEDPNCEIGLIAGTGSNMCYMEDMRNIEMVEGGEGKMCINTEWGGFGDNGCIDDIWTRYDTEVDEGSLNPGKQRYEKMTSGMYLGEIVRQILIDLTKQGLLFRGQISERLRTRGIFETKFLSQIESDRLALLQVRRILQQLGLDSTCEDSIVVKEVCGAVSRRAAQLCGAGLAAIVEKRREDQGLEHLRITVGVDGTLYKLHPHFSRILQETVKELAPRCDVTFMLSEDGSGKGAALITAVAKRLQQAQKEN

Question: Which AC50 [1] does the source give for `Cc1nc(Nc2ccc(Cl)cc2Cl)sc1C(=O)Nc1ccccc1` here?
Answer: The AC50 was 7.83 µM (active).

Question: What about the AC50 [2] of the same molecule?
Answer: Its AC50 is 56.1 µM (active).

Question: What about the CC50 [3] of the same molecule?
Answer: Its CC50 is > 40 µM (active).

Question: For `Cc1ccc(CNc2ncnc3ccc(-c4ccoc4C)cc23)o1`, which AC50 [4] is on record?
Answer: The AC50 was 0.695 µM (active).

Question: For `O=C1C(=Cc2cccc(O)c2O)SC(=S)N1CCCN1CCOCC1`, which IC50 [5] is on record?
Answer: The IC50 was 45.5 µM (active).

Question: What about the CC50 [6] of the same molecule?
Answer: Its CC50 is 100 µM (active).

Question: What about the IC50 [7] of the same molecule?
Answer: The IC50 was > 80 µM (inactive).

Question: With `O=C(COC(=O)c1cccnc1O)Nc1ccc(N2CCCCC2)cc1` as the molecule, how does the IC50 [8] read?
Answer: Its IC50 is > 80 µM (inactive).

Question: And the AC50 [9]?
Answer: The AC50 was 1.03 µM (active).

Question: And the IC50 [10]?
Answer: The IC50 was 0.19 µM (active).

Question: What does the source list for `O=c1c2ccccc2nc(/C=C/c2ccncc2)n1Cc1ccccc1`?
Answer: IC50 [11]: > 80 µM (inactive); IC50 [12]: > 80 µM (inactive)

Question: Which IC50 [13] does the source give for `COc1ccc(N2CC(C(=O)N/N=C/c3c[nH]c4ccccc34)CC2=O)cc1` (stereo not given) here?
Answer: The IC50 was > 99 µM (inactive).

Question: What about the IC50 [14] of the same molecule?
Answer: Its IC50 is > 99 µM (inactive).

Question: What about the IC50 [15] of the same molecule?
Answer: The IC50 was > 99 µM (inactive).

Question: And the IC50 [16]?
Answer: The IC50 was > 99 µM (inactive).

Question: Which results are given for `CC1=Nc2ccccc2/C1=C\c1sc(Nc2ccc(C)cc2)nc1O`?
Answer: IC50 [17]: 45.8 µM (inactive); IC50 [18]: 30.6 µM (inactive); AC50 [1]: 0.546 µM (active); IC50 [19]: 22.3 µM (inactive)
